Results on five substances are retold here after patent US20110197293A1, “SENSE AND ANTISENSE TRANSCRIPTS OF TRPM2 AND USES THEREOF” (GIOVANNI LAVORGNA, priority 2008, published 2011).

Common to all, as to assay type: cell-based, human
One series has as its system TRPM2-TE transcript. Put plainly: qPCR of TRPM2-TE transcript after siRNA transfection in Mel Im cells. As to conditions: siRNA 10 nM, harvested at 24 hours, respect to mock-transfected cells. The text has this:
(§1) Beta-actin (Exons 5-6) was amplified from cDNAs using the specific primers: LC+hBactin-U 5′-TCCTCCTGGAGAAGAGCTA-3′ (SEQ ID No. 6) and LC+hBactin-L 5′-GGATGCCACAGGACTCCAT-3′ (SEQ ID No. 7) coupled to human Universal Probe Library (UPL) probe number 11 (Roche) resulting in a 124 bp fragment. TRPM2-FL (Exons 20-21) was amplified by RT-PCR from cDNAs using the specific primers: RCH_LONG_TRPM2_U 5′-ACCTCCTCATCGCCATGTT-3′ (SEQ ID No. 8) and RCH_LONG_TRPM2_L 5′-[…]-3′ (SEQ ID No. 9) coupled to human UPL probe number 11, resulting in a 68 bp fragment. TRPM2-AS (Exons 1-2) was amplified by RT-PCR from cDNAs using the specific primers: RCH-asmel-1F 5′-[…]-3′ (SEQ ID No. 10) and RCH-asmel-1R 5′-[…]-3′ (SEQ ID No. 11) coupled to human UPL probe number 57, resulting in a 61 bp fragment. TRPM2-TE was amplified from cDNAs using the primers: UPL-TSS-U 5′-GATGTTTTGGCGGAAGGAC-3′ (SEQ ID No. 12) and UPL-TSS-Rev 5′-CAGGAAGACGTGACGCAAG-3′ (SEQ ID No. 13) coupled to human UPL probe number 6, resulting in a 88 bp intronless fragment. The contribution of genomic DNA contamination to the detected signal was subtracted by running a parallel real-time quantification from a RT-minus reaction, where the RT-enzyme was substituted with water. When RNA was not available to perform the RT-minus control, the contribution of DNA contamination to the detected signal was subtracted by performing a real-time quantification on the same samples, using a couple of primers specific for the Beta-actin promoter: LC-ProBACT-U1 5′-[…]-3′ (SEQ ID No. 14) and LC-ProBACT-L1 5′-[…]-3′ (SEQ ID No. 15) coupled to human UPL probe number 81 (Roche) resulting in a 85 bp fragment. Real time PCR reactions were performed on a LightCycler 480 instrument (Roche), on 96 multiwell plates (Roche) using LightCycler 480 ProbeMaster Mix (Roche) following the manufacturer instructions. Briefly, all reactions were performed in a final 30 μl volume containing 15 μl of 2× MasterMix, 0.6 μl of each primer (20 μmol/L), 0.3 μl of the corresponding UPL probe (10 μmol/L), and 10 μl of template cDNA. Only for TRPM2-AS the reaction was supplemented with 6 μl of 5× Solution-Q (Qiagen) and the cDNA template lowered to 7 μl. The resulting mix was pre-incubated for 10 minutes at 95° C., then amplification reactions were performed by 45 repetitive cycles of denaturing for 10 seconds at 95° C., annealing for 15 seconds at 58° C. and a final extension plus single acquisition step at 72° C. for 1 second. Levels of target gene transcripts were normalized to transcript levels of a reference gene (Beta-actin) and calculated using a relative quantification model with efficiency correction. Amplification efficiency of primer pairs was calculated from serial dilutions of a representative cDNA template over a concentration range of 3 log orders. […]
On the technique in general: Quantitative PCR measures a nucleic acid by following its amplification.

Another series deals with TRPM2-AS transcript. Briefly: qPCR of TRPM2-AS transcript after siRNA transfection in Mel Im cells. The following applies: siRNA 10 nM, harvested at 24 hours, respect to mock-transfected cells.
Excerpt: as §1

A further series has as its system Melanoma cells. Briefly: Apoptosis detection by flow cytometry (Annexin V) after siRNA transfection. As to conditions: 72 h after transfection. As for the experimental part: Apoptosis was measured after a 72 h transfection with any of the following siRNA: TRPM2-AS—657, TRPM2-AS—734, TRPM2-TE—55 or the non-specific siRNA. Early and late apoptotic cells were assessed by flow cytometry using the Annexin V-Fitc Apoptosis Detection kit (Immunostep, Salamanca, Spain), following manufacturer's instructions. Data acquisition and analysis were done in a FACSort Cytometer (Becton Dickinson, Franklin Lakes, N.J.) using CellQuest and FCS Express software.
Background: A flow cytometer gives signals particle by particle.

In series [1] the test system is CpG island located between TRPM2-AS and TRPM2-TE transcripts. Briefly: De-novo DNA methylation of the CpG island, bisulphite sequencing of clones. The following applies: Mel Im cells, liposome-encapsulated oligonucleotides 3 μM final, 24 hours. The protocol:
Genomic DNA was isolated and purified with TRIzol reagent (Invitrogen) and quantified with a Nanodrop. Average 100 ng of each DNA sample were subjected to bisulphite modification with the MethylEasy Kit (Human Genetic Signatures) allowing the sulphonation reaction to proceed for no less than 8 hours at 55° C. Following conversion, 3 μl of the modified DNAs were PCR amplified with the primers CpG-8U 5′-[…]-3′ (SEQ ID No. 3) and CpG-8L 5′-[…]-3′ (SEQ ID No. 4) (1 ng/μl each) in the presence of buffer 10× (Qiagen), dNTPs (2 mmol/L), 5× Solution Q (Qiagen), Taq DNA Polymerase (3U), with the reaction conditions being: 1 minute of pre-incubation at 95° C., then amplification reactions were performed by 35 repetitive cycles of denaturing for 1 minute at 95° C., annealing for 2 minutes at 55° C. and extension for 2 minutes at 72° C. A semi-nested PCR reaction was performed in same conditions except for the forward primer changed to CpG-1U 5′-[…]-3′ (SEQ ID No. 5), using 4 μl of the previous 472 bp per product as template. The resulting 370 bp product was then gel-purified, cloned and sequenced using standard procedures.
Three phosphorothioate oligonucleotides were designed in which the cytosines in CpG dinucleotides were replaced by m^5 CpG. […]

As to “5′-AGGUAGUGUAAUCGCCUUG(dTdT)-3′ [non-specific siRNA, reference compound]”, the “knock-out of TRPM2-TE transcripts/molecules” value in the series on TRPM2-TE transcript was “No significant down-regulation”. Also, the “knock-down of TRPM2-AS transcript expression” value (“knock-down” below) with TRPM2-AS transcript is “No significant down-regulation”.
As for “5′-CCACUUACUCAUCCAAGAA(dTdT)-3′ [TRPM2-AS—734]”, the “level of apoptosis vs. the control siRNA or the mock transfected cells” value with Melanoma cells is reported as “significant increase”. The “knock-out of TRPM2-TE transcripts/molecules” value in the series on TRPM2-TE transcript was found to be 70%. The “knock-down” value with TRPM2-AS transcript came to 75%.
With “5′-CCAGUAACUCCGCCCAAAU(dTdT)-3′ [TRPM2-AS—657]”, the “level of apoptosis vs. the control siRNA or the mock transfected cells” value in the series on Melanoma cells is “significant increase”. For the same substance, the “knock-out of TRPM2-TE transcripts/molecules” value in the series with TRPM2-TE transcript is 84%. For the same substance, the “knock-down” value with TRPM2-AS transcript is given as 69%.
On the same counts, the results for “5′-GAAGGACCACAGAGGAAGU(dTdT)-3′ [TRPM2-TE—55]” are “significant increase”, 56% and 30%.
Take “TCCT^mCGGGCTGCTGAGTTT^mCGC^mCGGCCC (DNA TCCTCGGGCTGCTGAGTTTCGCCGGCCC; 5-methylcytosine modifications, chemistry not fully specified) [MOS]”: the “methylation of CpG island clones (5 clones sequenced)” value in series [1] is reported as “non-methylation”.
